Assay results published in patent US6127333A, “Conjugates useful in the treatment of prostate cancer” (priority 1998, dated 2000).

Biological target: T1, York PSA (enzymatically active free PSA) (Homo sapiens, UniProt P07288)
T1 construct: 50% cleavage of the noted oligopeptide-cytotoxic agent conjugates with enzymatically active free PSA
Test: Recognition/cleavage of oligopeptide-vinca drug conjugates by free PSA
Format: biochemical
Conditions: PSA digestion buffer pH7.4, conjugate to PSA molar ratio 100 to 1, HPLC; when n > 1 value is an average
Method: Alternatively, the PSA digestion buffer utilized is 50 mM tris(hydroxymethyl)aminomethane pH7.4, 140 mM NaCl. The reaction is quenched after various reaction times by the addition of trifluoroacetic acid (TFA) to a final 1% (volume/volume). Alternatively the reaction is quenched with 10 mM ZnCl2. The quenched reaction was analyzed by HPLC on a reversed-phase C18 column using an aqueous 0.1%TFA/acetonitrile gradient. […] Unless otherwise indicated, the acetate salt of the conjugate was tested.

T1 sequence (P07288 25-261): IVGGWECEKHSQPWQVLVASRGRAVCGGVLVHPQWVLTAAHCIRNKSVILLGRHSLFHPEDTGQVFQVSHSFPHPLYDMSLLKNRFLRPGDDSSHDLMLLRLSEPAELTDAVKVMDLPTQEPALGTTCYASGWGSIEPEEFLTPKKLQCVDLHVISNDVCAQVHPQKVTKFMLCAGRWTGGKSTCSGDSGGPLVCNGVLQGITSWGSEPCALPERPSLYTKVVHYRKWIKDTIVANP

Substance	Time to 50% Substrate Cleavage by York PSA
4-des-Acetylvinblastine-23-(N-methoxy-diethyleneoxyacetyl-4-trans-L-Hyp-Ser-Ser-Chg-Gln-Ser-Val-BDAM) amide acetate salt	14 min
4-des-Acetylvinblastine-23-(N-Acetyl-Ser-Ser-Ser-Chg-Gln-Ser-Val-BDAM) amide acetate salt [Ac-SSSChgQSV-1,4-BDAM-(dAc)-VIN]	10 min
